Assay [1] has as its system MV-4-11 cells. Put plainly: Combination study with Ara-C in MV-4-11 cells (CellTiter-Glo). The assay is classed as cell-based, human. The following applies: 48 h. Here is the method: Human biphenotypic B myelomonocytic leukemia MV-4-11 cells (ATCC, Manassas, Va.) treated with test compounds at 2e5 cells/ml in IMDM medium containing 10% (v/v) FBS (Life Technologies, Grand Island, N.Y.) and 1×Pen/Strep Amphotericin B (Lonza, Allendale, N.J.). The final concentration of a test compound was set at a concentration previously determined to be its EC50 and Y3 EC50 values, while the combination test drug (Arabinofuranosyl Cytidine (Ara-C))(Sigma, St. Louis, Mo.) was assayed in serially-diluted 9-point concentrations against this background. Cells were treated for 48 h at 37° C. in a humidified atmosphere at 5% CO2. Cell viability was then determined indirectly via ATP content using the CellTiter-Glo® luminescent cell viability assay (Promega, Madison, Wis.) as per the manufacturer's instructions as follows: Briefly, experimental plates were equilibrated at room temperature for 30 minutes. An equal volume of CellTiter-Glo reagent was added to each well and incubated for 15 minutes at room temperature. Luminescent signal was read using the Wallac 1420 Victor2 multilabel microplate reader (Perkin Elmer, Waltham, Mass.).
A general note: ATP-based viability assays read luminescence as a measure of living cells.

The next assay deals with ABL or ARG. Nature of the assay: Probe-based (AX9989) kinase profiling in Jurkat lysate: ABL or ARG. The assay is classed as binding. Conditions: screening concentration 10.0 μM. The method, boiled down:
(§1)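 Compounds were pre-incubated for 15 min at room temperature with gel-filtered Jurkat cell lysate supplemented with 20 mM MnCl2, after which the acyl phosphate ATP probe AX9989 was added at 5 μM final. Labeled active-site peptides were enriched after tryptic digestion and measured by LC/MS, with percent inhibition taken relative to samples without compound.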

The next assay concerns the target T1, AurA (Homo sapiens, UniProt O14965).
T1 construct: screened for activity against several kinases in Jurkat cells; endogenous in cells; host or cells: Jurkat cell lysate
T1 sequence (O14965 1-403): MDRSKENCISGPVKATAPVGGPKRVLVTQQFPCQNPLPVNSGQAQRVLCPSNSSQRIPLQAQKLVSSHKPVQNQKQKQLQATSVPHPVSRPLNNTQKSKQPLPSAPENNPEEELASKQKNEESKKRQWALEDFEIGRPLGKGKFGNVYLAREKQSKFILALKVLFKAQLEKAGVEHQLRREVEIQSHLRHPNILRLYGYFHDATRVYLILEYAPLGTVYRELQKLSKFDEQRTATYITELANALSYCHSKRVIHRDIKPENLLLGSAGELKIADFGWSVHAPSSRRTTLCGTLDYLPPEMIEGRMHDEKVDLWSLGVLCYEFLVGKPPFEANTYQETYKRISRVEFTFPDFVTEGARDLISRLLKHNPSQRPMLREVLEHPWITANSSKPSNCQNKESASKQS
Put plainly: Probe-based (AX9989) kinase profiling in Jurkat lysate: AurA. The assay is classed as binding. Conditions: screening concentration 10.0 μM; read-out: Kinase inhibition % at indicated screening concentration: AurA. The method, boiled down: as §1

A further assay deals with T2, JAK1 (Homo sapiens, UniProt P23458).
T2 construct: screened for activity against several kinases in Jurkat cells; endogenous in cells; host or cells: Jurkat cell lysate
Put plainly: Probe-based (AX9989) kinase profiling in Jurkat lysate: JAK1. The assay is classed as binding. The following applies: screening concentration 10.0 μM; read-out: Kinase inhibition % at indicated screening concentration: JAK1. The method, boiled down: as §1

The target of the next assay is T3, ERK5 (Homo sapiens, UniProt Q13164).
T3 construct: screened for activity against several kinases in Jurkat cells; endogenous in cells; host or cells: Jurkat cell lysate
Nature of the assay: Probe-based (AX9989 acyl phosphate ATP probe) kinase profiling in Jurkat lysate: ERK5. The assay is classed as binding. The method, boiled down: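 Gel-filtered Jurkat lysate (5 mg/ml, 20 mM MnCl2) preincubated 15 min at room temperature with compound, then labelled with 5 μM AX9989 acyl phosphate ATP probe. Probe-labelled ERK5 active-site peptides quantified by LC/MS after trypsin digestion and streptavidin capture; IC50 calculated from percent inhibition at the screening concentration.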

The next assay deals with AMPKa1 or AMPKa2. Nature of the assay: Probe-based (AX9989) kinase profiling in Jurkat lysate: AMPKa1 or AMPKa2. The assay is classed as binding. Conditions: screening concentration 10.0 μM. The method, boiled down: as §1
Assay [2] has as its system MV-4-11 cells. Put plainly: MV-4-11 proliferation EC50 assay (CellTiter-Glo). Conditions: Homo sapiens, MV4-11, 48 h, read-out: MV-4-11 proliferation EC50, ave. ± S.D. The assay is classed as cell-based. Here is the method:
Human biphenotypic B myelomonocytic leukemia MV-4-11 cells (ATCC, Manassas, Va.) were treated with test compounds at 2e5 cells/ml in IMDM medium containing 10% (v/v) FBS (Life Technologies, Grand Island, N.Y.) and 1×Pen/Strep Amphotericin B (Lonza, Allendale, N.J.). Compounds were tested at 25 μM down by ⅓ in a 9 point serial dilution series. Cells were incubated for 48 h at 37° C. in a humidified atmosphere at 5% CO2. MV-4-11 cell proliferation was then indirectly determined via cellular ATP content using the CellTiter-Glo® Luminescent Cell Viability Assay (Promega, Madison, Wis.) as per the manufacturer's instructions. Briefly, experimental plates were equilibrated at room temperature for 30 minutes. An equal volume of CellTiter-Glo® reagent was added to each well and incubated for 15 minutes at room temperature. Luminescent signal was read using the Wallac 1420 Victor^2 multilabel microplate reader (Perkin Elmer, Waltham, Mass.). EC50 values were determined using GraphPad Prism software v5.04.

In a further assay the test system is AurB or AurC. Put plainly: Probe-based (AX9989) kinase profiling in Jurkat lysate: AurB or AurC. The assay is classed as binding. Conditions: screening concentration 10.0 μM. The method, boiled down:
as §1

A further assay addresses T4, ACK (Homo sapiens, UniProt Q07912).
T4 construct: screened for activity against several kinases in Jurkat cells; endogenous in cells; host or cells: Jurkat cell lysate
Nature of the assay: Probe-based (AX9989) kinase profiling in Jurkat lysate: ACK. The assay is classed as binding. The following applies: screening concentration 10.0 μM; read-out: Kinase inhibition % at indicated screening concentration: ACK. The method, boiled down:
as §1

The target in another assay is T5, TAO2 (Homo sapiens, UniProt Q9UL54).
T5 construct: screened for activity against several kinases in Jurkat cells; endogenous in cells; host or cells: Jurkat cell lysate
T5 sequence (Q9UL54 1-1235): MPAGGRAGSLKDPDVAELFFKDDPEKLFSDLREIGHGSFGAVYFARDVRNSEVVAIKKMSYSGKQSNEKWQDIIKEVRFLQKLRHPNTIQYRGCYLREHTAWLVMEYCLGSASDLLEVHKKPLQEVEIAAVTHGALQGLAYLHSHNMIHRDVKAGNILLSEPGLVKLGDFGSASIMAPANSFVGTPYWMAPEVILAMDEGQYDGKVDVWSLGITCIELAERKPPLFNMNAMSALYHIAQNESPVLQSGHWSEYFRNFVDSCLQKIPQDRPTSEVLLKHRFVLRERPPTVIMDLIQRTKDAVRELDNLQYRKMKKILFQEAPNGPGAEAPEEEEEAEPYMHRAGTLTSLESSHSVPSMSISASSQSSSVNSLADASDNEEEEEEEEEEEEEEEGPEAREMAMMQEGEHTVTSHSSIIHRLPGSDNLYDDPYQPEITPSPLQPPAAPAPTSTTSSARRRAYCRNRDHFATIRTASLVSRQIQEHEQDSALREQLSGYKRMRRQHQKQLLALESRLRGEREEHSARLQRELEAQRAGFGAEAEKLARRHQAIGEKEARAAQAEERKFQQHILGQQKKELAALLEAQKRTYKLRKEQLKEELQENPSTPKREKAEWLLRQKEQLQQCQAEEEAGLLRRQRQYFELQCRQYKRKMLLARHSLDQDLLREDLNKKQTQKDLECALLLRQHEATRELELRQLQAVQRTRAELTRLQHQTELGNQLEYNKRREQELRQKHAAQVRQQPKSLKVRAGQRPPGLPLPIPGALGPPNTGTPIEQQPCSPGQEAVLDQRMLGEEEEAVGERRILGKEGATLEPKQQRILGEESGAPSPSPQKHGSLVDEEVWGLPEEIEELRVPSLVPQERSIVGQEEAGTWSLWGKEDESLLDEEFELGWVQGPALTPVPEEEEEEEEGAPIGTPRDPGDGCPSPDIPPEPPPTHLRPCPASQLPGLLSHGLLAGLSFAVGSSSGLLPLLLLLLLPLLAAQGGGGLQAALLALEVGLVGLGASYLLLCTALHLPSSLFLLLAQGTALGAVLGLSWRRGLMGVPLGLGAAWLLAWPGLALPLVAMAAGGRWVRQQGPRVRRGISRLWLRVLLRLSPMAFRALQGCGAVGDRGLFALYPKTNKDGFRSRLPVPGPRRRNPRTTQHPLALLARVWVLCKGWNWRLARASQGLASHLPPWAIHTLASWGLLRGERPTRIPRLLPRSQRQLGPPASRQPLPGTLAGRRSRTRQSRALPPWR
Nature of the assay: Probe-based (AX9989) kinase profiling in Jurkat lysate: TAO2. The assay is classed as binding. Conditions: screening concentration 10.0 μM; read-out: Kinase inhibition % at indicated screening concentration: TAO2. The method, boiled down:
as §1

The values below come from patent publication US20170008888A1 (KYORIN PHARMACEUTICAL CO., LTD., priority 2014, published 2017).

T3 sequence (Q13164 whole entry): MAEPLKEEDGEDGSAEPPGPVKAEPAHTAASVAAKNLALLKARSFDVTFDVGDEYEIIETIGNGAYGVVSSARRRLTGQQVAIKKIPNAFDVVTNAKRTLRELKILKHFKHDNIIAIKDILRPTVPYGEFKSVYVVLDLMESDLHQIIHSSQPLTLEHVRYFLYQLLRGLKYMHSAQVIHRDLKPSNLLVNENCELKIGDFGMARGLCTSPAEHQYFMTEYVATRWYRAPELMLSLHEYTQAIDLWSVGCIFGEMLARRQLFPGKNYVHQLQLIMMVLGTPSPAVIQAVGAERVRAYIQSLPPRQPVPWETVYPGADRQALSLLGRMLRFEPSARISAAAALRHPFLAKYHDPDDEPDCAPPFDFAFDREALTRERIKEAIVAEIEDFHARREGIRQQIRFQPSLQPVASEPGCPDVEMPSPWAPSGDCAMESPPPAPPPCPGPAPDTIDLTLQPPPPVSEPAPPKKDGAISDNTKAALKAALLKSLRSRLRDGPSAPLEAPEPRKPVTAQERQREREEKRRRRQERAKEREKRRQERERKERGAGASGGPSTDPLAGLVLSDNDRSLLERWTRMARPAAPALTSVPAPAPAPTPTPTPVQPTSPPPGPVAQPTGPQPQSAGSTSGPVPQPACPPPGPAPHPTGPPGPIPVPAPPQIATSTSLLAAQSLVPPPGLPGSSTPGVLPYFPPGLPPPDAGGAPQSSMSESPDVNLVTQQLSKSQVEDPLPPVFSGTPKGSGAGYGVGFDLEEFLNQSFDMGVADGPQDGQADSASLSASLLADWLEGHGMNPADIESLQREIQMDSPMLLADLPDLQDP
T4 sequence (Q07912 whole entry): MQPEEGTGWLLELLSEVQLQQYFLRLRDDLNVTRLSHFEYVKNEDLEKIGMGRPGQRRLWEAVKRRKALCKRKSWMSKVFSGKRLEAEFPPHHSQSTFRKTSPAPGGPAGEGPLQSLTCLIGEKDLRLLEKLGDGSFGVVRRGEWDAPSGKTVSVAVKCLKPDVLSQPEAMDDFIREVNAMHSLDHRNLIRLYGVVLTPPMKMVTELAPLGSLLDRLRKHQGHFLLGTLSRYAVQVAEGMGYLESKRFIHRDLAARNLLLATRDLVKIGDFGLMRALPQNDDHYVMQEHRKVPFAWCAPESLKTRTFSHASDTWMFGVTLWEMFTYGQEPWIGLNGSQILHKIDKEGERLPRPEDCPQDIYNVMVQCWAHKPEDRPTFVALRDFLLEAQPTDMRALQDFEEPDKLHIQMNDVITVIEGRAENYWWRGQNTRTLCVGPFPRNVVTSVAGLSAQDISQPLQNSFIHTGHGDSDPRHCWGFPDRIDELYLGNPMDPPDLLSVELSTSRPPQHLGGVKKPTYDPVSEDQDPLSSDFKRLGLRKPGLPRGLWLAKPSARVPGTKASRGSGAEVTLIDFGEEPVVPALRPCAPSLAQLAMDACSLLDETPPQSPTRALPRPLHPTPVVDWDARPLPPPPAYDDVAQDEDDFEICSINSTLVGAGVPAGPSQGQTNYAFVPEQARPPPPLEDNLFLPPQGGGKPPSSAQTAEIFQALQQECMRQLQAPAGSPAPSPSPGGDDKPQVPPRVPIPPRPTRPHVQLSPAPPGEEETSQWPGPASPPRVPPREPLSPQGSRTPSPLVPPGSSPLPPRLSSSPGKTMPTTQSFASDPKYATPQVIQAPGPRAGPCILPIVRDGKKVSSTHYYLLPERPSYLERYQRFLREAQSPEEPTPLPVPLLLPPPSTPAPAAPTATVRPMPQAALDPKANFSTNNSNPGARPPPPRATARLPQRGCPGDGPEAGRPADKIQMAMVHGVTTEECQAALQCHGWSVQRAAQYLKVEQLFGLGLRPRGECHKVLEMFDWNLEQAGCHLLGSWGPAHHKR
T2 sequence (P23458 whole entry): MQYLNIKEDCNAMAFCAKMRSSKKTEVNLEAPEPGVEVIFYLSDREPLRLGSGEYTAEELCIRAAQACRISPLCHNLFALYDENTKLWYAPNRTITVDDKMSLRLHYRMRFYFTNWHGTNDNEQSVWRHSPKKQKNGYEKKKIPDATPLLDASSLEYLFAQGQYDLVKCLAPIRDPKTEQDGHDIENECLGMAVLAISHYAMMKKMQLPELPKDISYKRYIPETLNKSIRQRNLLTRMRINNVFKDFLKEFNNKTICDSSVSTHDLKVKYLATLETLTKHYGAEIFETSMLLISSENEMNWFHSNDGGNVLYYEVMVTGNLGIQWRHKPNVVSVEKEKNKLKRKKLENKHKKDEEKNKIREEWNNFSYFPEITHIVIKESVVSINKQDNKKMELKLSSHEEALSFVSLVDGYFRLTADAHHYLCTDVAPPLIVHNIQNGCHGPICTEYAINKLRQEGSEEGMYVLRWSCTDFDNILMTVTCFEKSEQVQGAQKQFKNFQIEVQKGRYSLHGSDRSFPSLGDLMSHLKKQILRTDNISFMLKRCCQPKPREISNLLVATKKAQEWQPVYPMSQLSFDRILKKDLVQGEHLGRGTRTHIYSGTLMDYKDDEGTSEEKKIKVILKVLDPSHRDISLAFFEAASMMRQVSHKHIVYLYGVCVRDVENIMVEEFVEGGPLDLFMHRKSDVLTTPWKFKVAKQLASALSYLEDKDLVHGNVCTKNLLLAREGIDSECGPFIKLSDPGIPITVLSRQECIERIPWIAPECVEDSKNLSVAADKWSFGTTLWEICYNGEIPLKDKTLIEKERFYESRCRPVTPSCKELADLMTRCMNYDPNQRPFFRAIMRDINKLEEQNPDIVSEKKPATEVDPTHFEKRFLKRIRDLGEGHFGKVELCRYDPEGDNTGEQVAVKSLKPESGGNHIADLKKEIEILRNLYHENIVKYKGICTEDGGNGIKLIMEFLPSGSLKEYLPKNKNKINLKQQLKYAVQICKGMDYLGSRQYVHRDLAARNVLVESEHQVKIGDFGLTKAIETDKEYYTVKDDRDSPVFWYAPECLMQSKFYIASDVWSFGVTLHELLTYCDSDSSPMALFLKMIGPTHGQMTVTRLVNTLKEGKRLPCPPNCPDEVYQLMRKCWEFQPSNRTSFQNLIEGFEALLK

`Nc1ccn([C@@H]2O[C@H](CO)[C@@H](O)[C@@H]2O)c(=O)n1` [Ara-C]: the EC50 stood at 0.108 µM with MV-4-11 cells [1] (read-out: EC50 (μM) of Ara-C in combination with a fixed concentration of compound 61 at EC50); 0.265 µM in the assay on MV-4-11 cells [1] (read-out: EC50 (μM) of Ara-C in combination with a fixed concentration of compound 61 at ⅓ EC50); 0.353 µM in the assay on MV-4-11 cells [1] (read-out: EC50 (μM) of Ara-C, compound 61 not present).
On to `CN1C(=O)c2ccccc2N(C)c2cc(Nc3ccc(N4CCC(O)CC4)cn3)ncc21` [Compound 4], for which the “Kinase inhibition % at indicated screening concentration: ABL or ARG” value with ABL or ARG is reported as “C (C is >50% to ≦75%)”. In addition, the inhibition at 10 µM is above 90% at AurA; 50 to 75% on JAK1; 75 to 90% on ERK5 (screening concentration 10.0 μM, read-out: Kinase inhibition % at indicated screening concentration: ERK5); 75 to 90% on ACK; 50 to 75% at TAO2. The IC50 at ERK5 (calculated from percent inhibition of AX9989 labeling and the screening concentration, Jurkat lysate) was above 500 nM. The “Kinase inhibition % at indicated screening concentration: AMPKa1 or AMPKa2” value with AMPKa1 or AMPKa2 was “C (C is >50% to ≦75%)”. The EC50 with MV-4-11 cells [2] amounted to 60 nM. In addition, in the assay on AurB or AurC, the “Kinase inhibition % at indicated screening concentration: AurB or AurC” value was “A (A>90%)”.

The term IC50 denotes the point on the concentration scale where inhibition reaches its midpoint.
